Literature values, collected in patent US20160106679A1, “TABLET WITH INCREASED DRUG LOAD OF ODANACATIB” (SANDOZ AG, priority 2013, published 2016).
Read-outs that look alike come from different tables or passages of the source.

Experiments:
[1] = highly crystalline odanacatib
[2] = system: patients

For CC(C)(F)C[C@H](N[C@@H](c1ccc(-c2ccc(S(C)(=O)=O)cc2)cc1)C(F)(F)F)C(=O)NC1(C#N)CC1 [Odanacatib, odanacatib], the aqueous solubility [1] is listed as “low”, the “BMD change at lumbar spine, hip and femoral neck” value ([2]; patients treated once weekly with 20-50 mg) is listed as “increases in lumbar spine, hip and femoral neck BMD” and the “BMD change at lumbar spine, hip and femoral neck” value ([2]; patients treated with low doses) is listed as “decreases in BMD at the same sites”.
